≈ marks a conversion by molar mass, not a printed value. Where “and” joins values, the source holds several entries; their conditions need not be identical. Equal entries are not always repeated.
What was measured:
[1] = target: T1, AcpS_R48A (Escherichia coli, UniProt P24224, R48A); experiment: Inhibition of purified AcpS site-directed mutant by drug (Suppl Fig 3 source data); assay type: biochemical; details: for AcpS rate nM/min, Mean / AcpS rate: Suppl Fig 3, [AcpS_R48A] 5 nM; for AcpS rate: replicates
T1 construct: 6x-His (C); made in house

[2] = target: AcpS^F50/50A (Escherichia coli, UniProt P24224, F49A); experiment: Inhibition of purified AcpS site-directed mutant by DNM0547; assay type: biochemical, E. coli
Experimental: Using purified E. coli AcpS proteins, we determined the enzyme activity of wild-type and numerous AcpS mutants. Those analyzed by scanning alanine mutagenesis included (S. aureus amino acid residue followed by the corresponding E. coli residue) R46/48, F50/50, R54/53, K63/62, N82/81, and H-/108.
Recombinant His-Tagged AcpS expression was induced by IPTG addition and overnight culture. Cell lysate was obtained by sequential aspiration through 16, 18 and 21 G needles in a buffer of 50 mM Tris-HCl (pH 8.5), 10 mM MgCl2, 2 mM DTT, 5% glycerol, and further adjusted to pH 8.1 with MES. […] In a typical AcpS enzyme activity assay, 57 µM [^3H]acetyl-CoA, 2 µg apo-ACP, 10 mM MgCl2, 5 mM DTT, 50 mM Na phosphate (pH 7.0), and AcpS in a final volume of 10 µL were incubated at room temperature in a 1.5 mL microcentrifuge tube. At 5, 10, 15, and 20 min 2 µL of reaction were added to 750 µl 10% TCA on ice. […] 2 mL of scintillation fluid was added, and the amount of [^3H]-labeled holo-ACP formed was quantified by liquid scintillation counting. […] Routinely, each data point was determined at least by triplicate. […]
coli wild type and AcpS mutants determined using purified proteins. b, AcpS enzyme activity for each AcpS mutant was assayed at increasing concentration of DNM0547 (0-128 µM). IC50 was determined using GraphPad Prism. […]

[3] = test system: S. epidermidis (MRSE); experiment: MIC, clinical and laboratory strains; assay type: cell-based
Experimental: (§1) The medium employed for the assay was Mueller Hinton II Broth (MHB II; Becton-Dickinson, Sparks, MD, USA). Agar plates used for the organisms were trypticase soy agar plus 5% sheep blood (BD; Sparks, MD, USA). MIC assay plates were prepared using the CLSI broth microdilution procedure. Automated liquid handlers (Multidrop 384, Biomek 2000 and Biomek FX) were used to conduct serial dilutions and liquid transfers. A standardized inoculum of each organism was prepared per CLSI methods. Suspensions were prepared to equal a 0.5 McFarland standard, followed by a 1:20 dilution in test media. The inocula were dispensed into sterile reservoirs divided by length (Beckman Colter) and the Biomek 2000 was used to inoculate the plates. Daughter plates were placed on the Biomek 2000 work surface in reverse orientation so that inoculation took place from low to high drug concentration. The Biomek 2000 delivered 10 μL of the diluted suspension into each well. These inoculations yielded a final cell concentration in the daughter plates of ~5 × 10^5 colony-forming units/mL in each well. The wells of the daughter plates ultimately contained 185 μL of broth, 5 μL of drug solution, and 10 μL of bacterial inoculum. Plates were covered with a sterile lid on the top plate, placed in plastic bags, and incubated at 35 °C for ~18 h. The microplates were viewed from the bottom using a plate viewer and the MIC was read. The MIC was recorded as the lowest concentration of drug that inhibited visible growth of the organism.

[4] = test system: S. epidermidis (MSSE); experiment: MIC, clinical and laboratory strains; assay type: cell-based
Experimental: as §1

[5] = test system: S. epidermidis (VISE); experiment: MIC, clinical and laboratory strains; assay type: cell-based
Experimental: as §1

[6] = test system: S. aureus (MSSA); experiment: MIC, clinical and laboratory strains; assay type: cell-based
Experimental: as §1

[7] = test system: S. aureus (VISA); experiment: MIC, clinical and laboratory strains; assay type: cell-based
Experimental: as §1

T1 sequence (P24224 whole entry R48A): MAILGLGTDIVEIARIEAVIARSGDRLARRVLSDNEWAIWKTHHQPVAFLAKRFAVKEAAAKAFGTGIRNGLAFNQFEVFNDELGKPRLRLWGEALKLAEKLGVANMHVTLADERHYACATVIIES
Chain of AcpS^F50/50A (P24224 2-126 F49A): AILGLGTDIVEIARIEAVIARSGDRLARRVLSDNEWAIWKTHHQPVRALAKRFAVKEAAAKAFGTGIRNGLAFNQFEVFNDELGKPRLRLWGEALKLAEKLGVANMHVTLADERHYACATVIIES

Q: Which “AcpS rate nM/min, Mean” value ([1]; Drug Conc 1 uM) does the source give for `CC(C)c1cc(Cl)ccc1-c1cc(-c2nnn[nH]2)c(-c2ccc(Cl)cc2C(C)C)s1` [DNM0547] here?
A: 97.88 nM/min

Q: What about the “AcpS rate” value ([1]; Drug Conc 1 uM) of the same compound?
A: 102.89 nM/min and 96.62 nM/min and 94.12 nM/min

Q: What about the “AcpS rate nM/min, Mean” value ([1]; Drug Conc 2 uM) of the same compound?
A: 93.89 nM/min

Q: What about the “AcpS rate” value ([1]; Drug Conc 2 uM) of the same compound?
A: 97.97 nM/min and 91.69 nM/min and 92.02 nM/min

Q: And the “AcpS rate nM/min, Mean” value ([1]; Drug Conc 4 uM)?
A: 94.54 nM/min

Q: And the “AcpS rate” value ([1]; Drug Conc 4 uM)?
A: 95.47 nM/min and 93.88 nM/min and 94.27 nM/min

Q: And the “AcpS rate nM/min, Mean” value ([1]; Drug Conc 8 uM)?
A: 92.47 nM/min

Q: What about the “AcpS rate” value ([1]; Drug Conc 8 uM) of the same compound?
A: 92.76 nM/min and 91.81 nM/min and 92.85 nM/min

Q: And the “AcpS rate nM/min, Mean” value ([1]; Drug Conc 16 uM)?
A: 48.14 nM/min

Q: What about the “AcpS rate” value ([1]; Drug Conc 16 uM) of the same compound?
A: 58.48 nM/min and 54.48 nM/min and 31.45 nM/min

Q: And the “AcpS rate nM/min, Mean” value ([1]; Drug Conc 32 uM)?
A: 20.22 nM/min

Q: And the “AcpS rate” value ([1]; Drug Conc 32 uM)?
A: 22.18 nM/min and 16.02 nM/min and 22.44 nM/min

Q: And the “AcpS rate nM/min, Mean” value ([1]; Drug Conc 64 uM)?
A: 10.15 nM/min

Q: And the “AcpS rate” value ([1]; Drug Conc 64 uM)?
A: 9.77 nM/min and 11.77 nM/min and 8.90 nM/min

Q: And the “AcpS rate nM/min, Mean” value ([1]; Drug Conc 128 uM)?
A: 4.77 nM/min

Q: What about the “AcpS rate” value ([1]; Drug Conc 128 uM) of the same compound?
A: 4.67 nM/min (2×) and 4.95 nM/min

Q: What about the remaining activity at 1 µM ([1]; read-out: % of untreated, Suppl Fig 3, [AcpS_R48A] 5 nM, Drug Conc 1 uM, replicates) of the same compound?
A: 106%

Q: And the remaining activity at 2 µM ([1]; read-out: % of untreated, Suppl Fig 3, [AcpS_R48A] 5 nM, Drug Conc 2 uM, replicates)?
A: 101%

Q: What about the remaining activity at 4 µM ([1]; read-out: % of untreated, Suppl Fig 3, [AcpS_R48A] 5 nM, Drug Conc 4 uM, replicates) of the same compound?
A: 98.7%

Q: And the remaining activity at 8 µM ([1]; read-out: % of untreated, Suppl Fig 3, [AcpS_R48A] 5 nM, Drug Conc 8 uM, replicates)?
A: 95.9%

Q: And the remaining activity at 32 µM ([1]; read-out: % of untreated, Suppl Fig 3, [AcpS_R48A] 5 nM, Drug Conc 32 uM, replicates)?
A: 22.9%

Q: What about the remaining activity at 64 µM ([1]; read-out: % of untreated, Suppl Fig 3, [AcpS_R48A] 5 nM, Drug Conc 64 uM, replicates) of the same compound?
A: 10.1%

Q: And the remaining activity at 128 µM ([1]; read-out: % of untreated, Suppl Fig 3, [AcpS_R48A] 5 nM, Drug Conc 128 uM, replicates)?
A: 4.83%

Q: And the IC50 [2]?
A: 16.2 µM

Q: What about the MIC ([3]; S. epidermidis (MRSE) 3679) of the same compound?
A: 2 µg/mL (≈ 4.37 µM)

Q: What about the MIC ([3]; S. epidermidis (MRSE) 3680) of the same compound?
A: 2 µg/mL (≈ 4.37 µM)

Q: What about the MIC ([3]; S. epidermidis (MRSE) 3681) of the same compound?
A: 1 µg/mL (≈ 2.19 µM)

Q: And the MIC ([3]; S. epidermidis (MRSE) 3683)?
A: 2 µg/mL (≈ 4.37 µM)

Q: What about the MIC ([3]; S. epidermidis (MRSE) 3745) of the same compound?
A: 8 µg/mL (≈ 17.5 µM)

Q: What about the MIC ([3]; S. epidermidis (MRSE) 3746) of the same compound?
A: 2 µg/mL (≈ 4.37 µM)

Q: And the MIC ([3]; S. epidermidis (MRSE) 3747)?
A: 2 µg/mL (≈ 4.37 µM)

Q: And the MIC ([4]; S. epidermidis (MSSE) 3234)?
A: 4 µg/mL (≈ 8.74 µM)

Q: And the MIC ([4]; S. epidermidis (MSSE) 3602)?
A: 2 µg/mL (≈ 4.37 µM)

Q: What about the MIC ([4]; S. epidermidis (MSSE) 3609) of the same compound?
A: 4 µg/mL (≈ 8.74 µM)

Q: What about the MIC ([4]; S. epidermidis (MSSE) 3617) of the same compound?
A: 1 µg/mL (≈ 2.19 µM)

Q: And the MIC ([4]; S. epidermidis (MSSE) 3620)?
A: 2 µg/mL (≈ 4.37 µM)

Q: What about the MIC ([4]; S. epidermidis (MSSE) 3621) of the same compound?
A: 1 µg/mL (≈ 2.19 µM)

Q: What about the MIC ([5]; S. epidermidis (VISE) 2020) of the same compound?
A: 8 µg/mL (≈ 17.5 µM)

Q: And the MIC ([5]; S. epidermidis (VISE) 2021)?
A: 1 µg/mL (≈ 2.19 µM)

Q: And the MIC ([5]; S. epidermidis (VISE) 2022)?
A: 2 µg/mL (≈ 4.37 µM)

Q: And the MIC ([5]; S. epidermidis (VISE) 2023)?
A: 4 µg/mL (≈ 8.74 µM)

Q: And the MIC ([5]; S. epidermidis (VISE) 2024)?
A: 32 µg/mL (≈ 70 µM)

Q: What about the MIC ([5]; S. epidermidis (VISE) 2025) of the same compound?
A: 4 µg/mL (≈ 8.74 µM)

Q: And the MIC ([6]; S. aureus (MSSA) 2127)?
A: 1 µg/mL (≈ 2.19 µM)

Q: And the MIC ([6]; S. aureus (MSSA) 6167)?
A: 2 µg/mL (≈ 4.37 µM)

Q: And the MIC ([6]; S. aureus (MSSA) 6168)?
A: 1 µg/mL (≈ 2.19 µM)

Q: And the MIC ([6]; S. aureus (MSSA) 6170)?
A: 1 µg/mL (≈ 2.19 µM)

Q: And the MIC ([6]; S. aureus (MSSA) 6316)?
A: 2 µg/mL (≈ 4.37 µM)

Q: And the MIC ([6]; S. aureus (MSSA) 6317)?
A: 1 µg/mL (≈ 2.19 µM)

Q: And the MIC ([6]; S. aureus (MSSA) 6318)?
A: 1 µg/mL (≈ 2.19 µM)

Q: And the MIC ([6]; S. aureus (MSSA) 6499)?
A: 2 µg/mL (≈ 4.37 µM)

Q: And the MIC ([6]; S. aureus (MSSA) 6500)?
A: 1 µg/mL (≈ 2.19 µM)

Q: What about the MIC ([6]; S. aureus (MSSA) 6502) of the same compound?
A: 1 µg/mL (≈ 2.19 µM)

Q: What about the MIC ([7]; S. aureus (VISA) 1724) of the same compound?
A: 2 µg/mL (≈ 4.37 µM)

Q: What about the MIC ([7]; S. aureus (VISA) 2012) of the same compound?
A: 2 µg/mL (≈ 4.37 µM)

Q: What about the MIC ([7]; S. aureus (VISA) 2013) of the same compound?
A: 2 µg/mL (≈ 4.37 µM)

Q: And the MIC ([7]; S. aureus (VISA) 2014)?
A: 2 µg/mL (≈ 4.37 µM)

Q: And the MIC ([7]; S. aureus (VISA) 2015)?
A: 2 µg/mL (≈ 4.37 µM)

Q: What about the MIC ([7]; S. aureus (VISA) 2016) of the same compound?
A: 2 µg/mL (≈ 4.37 µM)

Q: What about the MIC ([7]; S. aureus (VISA) 2017) of the same compound?
A: 2 µg/mL (≈ 4.37 µM)

Q: What about the MIC ([7]; S. aureus (VISA) 2018) of the same compound?
A: 2 µg/mL (≈ 4.37 µM)

Q: And the MIC ([7]; S. aureus (VISA) 2019)?
A: 1 µg/mL (≈ 2.19 µM)

Q: What about the MIC ([7]; S. aureus (VISA) 2123) of the same compound?
A: 2 µg/mL (≈ 4.37 µM)

Q: And the MIC ([7]; S. aureus (VISA) NRS1/1723)?
A: 2 µg/mL (≈ 4.37 µM)

Source: PMC11436758, “Computer-aided drug design to generate a unique antibiotic family” (Nature Communications, 2024)
